According to patent US20110091375A1, “USE OF THE COMBINATION COMPRISING TEMOZOLOMIDE AND TNF-ALPHA FOR TREATING GLIOBLASTOMA” (THE UNIVERSITY OF CHICAGO, priority 2004, published 2011):

Tests used:
U87 cells = test: U87 cell viability (Trypan Blue dye exclusion, MTS); type: cell-based, human; conditions: 10 ng/mL TNFα and/or 100 μM TMZ
Method: Trypan Blue dye exclusion method was employed. 10^4 U87 cells were plated and incubated at 37° C. overnight. Subsequently, the cells were contacted with media containing TNFα (10 ng/mL) and/or TMZ (100 μM), incubated for 3 h, and washed. […] All of the studies were performed in triplicate.

[1] = system: U87 intracranial xenografts; test: Intracranial glioma xenograft survival; type: in vivo, nude mice; conditions: first intracranial experiment; TMZ 20 mg/kg total IP, single IC Ad.Egr-TNF
Method: Intracranial Studies: In two separate experiments, 5×10^5 U87 cells were inoculated into the right caudate nucleus on day 0 using a screw guide technique (Lal, S. et al. (2000) J Neurosurg 92:326-333). In the first experiment, mice were randomized into four groups as described above in Example 4. On day 5, a single intracranial (IC) injection of 5×10^8 pu Ad.Egr-TNF in 5 μl volume was made directly into the tumor using the screw guide technique. TMZ (5 mg/kg) was given IP 3 h after IC vector inoculation. Three additional IP TMZ injections were administered on consecutive days for a total dose of 20 mg/kg. Control animals received SFM IT and IP.
In a second experiment, mice were randomized into eight groups (untreated control (UTC); intratumoral (IT) Ad.Egr-TNF alone; intraperitoneal (IP) TMZ alone; IR alone; Ad.Egr-TNF and TMZ; Ad.Egr-TNF and IR; TMZ and IR; and Ad.Egr-TNF, TMZ and IR). A single dose of 5×10^5 U87 cells was inoculated into the right caudate nucleus of each mouse on day 0 using a screw guide technique (Lal, S. et al. (2000) J Neurosurg 92:326-333). On day 5, 5×10^8 pu Ad.Egr-TNF in 5 μL volume was injected once via the screw guide directly into the tumor. Beginning two hours after vector injection, 5 Gy IR was delivered to the tumor area and repeated every 2-3 days to a total of 30 Gy. […]

[2] = system: NF-κB in BxPC-3 pancreatic cancer cells; test: NF-κB-responsive luciferase reporter assay, BxPC-3; type: cell-based, human
IκBα = test: TNFα-induced IκBα degradation and phosphorylation (Western blot / kinase assay); type: cell-based, human
Method: Cells were then washed with 10 mL ice-cold PBS, scraped from the dish, and pelleted by centrifugation at 1000 rpm for 5 m at 4° C. Cell pellets were resuspended in 400 μl of ice-cold buffer A (10 mM HEPES, pH 7.9; 10 mM KCl; 0.1 mM EDTA; 1 mM DTT; 0.5 mM phenylmethysulfonylfluoride [PMSF]; 1 μg/mL leupeptin; 5 μg/mL aprotinin) and allowed to swell on ice for 15 m. Following the addition of 25 μl of 10% NP-40, the suspension was vortexed for 10 s and centrifuged at 14,500 rpm for 1 m at 4° C. Nuclei were resuspended in 50 μl of ice-cold buffer B (20 mM HEPES, pH 7.9; […]; 1 mM EDTA; 1 mM DTT; 1 mM PMSF; 25% glycerol; 1 μg/mL leupeptin; 5 μg/mL aprotinin) and incubated on ice for 15 m. The nuclear suspension was then centrifuged at 14,500 rpm for 5 m at 4° C. and the supernatant containing the nuclear proteins was transferred to a clean tube. Protein concentrations for each sample were determined by the Bradford method (Bio-Rad, Richmond, Calif., USA) and were adjusted to 2 μg/μl by the addition of buffer B.
(§1) 20 μg of whole U87 cell (or nuclear) lysate was subjected to sodium dodecyl sulfate (SDS)-polyacrylamide gel electrophoresis (PAGE). Following electro-transfer, Immobilon-P membranes (Millipore Corp. Burlington, Mass., USA.) were probed with primary polyclonal antibody against IκBα, phospho-Ser32-IκBα, SAPK/JNK, phospho-Thr183/Tyr185-SAPK/JNK, p65, phospho-Ser536-p65 (Cell Signaling Technology Inc. Beverly, […]., USA) diluted 1:1000 overnight at 4° C. Anti-rabbit IgG HRP-linked secondary antibody (Cell Signaling Technology) was diluted 1:1000 in blocking buffer and applied for 1 h at room temperature. Immunoreactive bands were detected by SuperSignal enhanced chemiluminescence (ECL) (Pierce, Rockford, Ill., USA) and exposed to Kodak X-Omat film.
IκK was immunoprecipitated from treated U87 cell extracts with anti-IKKβ antibody, (Santa Cruz Biotechnology, Santa Cruz, Calif., USA). […] Kinase activity was quantified using a Phosphoimager and Equal protein loading determined by immunoblotting with anti-IκKβ antibody (Upstate USA, Charlottesville, Va., USA). […]

JNK = JNK phosphorylation (activation), Western blot; type: cell-based, human; conditions: glioma cells
Method: as §1

Cn1nnc2c(C(N)=O)ncn2c1=O [TMZ, temozolomide]
effect on U87 cell viability (U87 cells): Minimal effects
median survival [1]: 28 days
TNFα-induced NF-κB transcriptional activity [2]: activated
reduction of TNFα-induced phosphorylation of IκBα (IκBα; TMZ pretreatment, at 5 m): 50%
degradation of IκBα (IκBα; at 15 m, TNFα with or without TMZ pretreatment): reduced TNFα-induced degradation
JNK phosphorylation (activation) (JNK): progressive and delayed activation
